System: HCMV strain AD169
Assay: Human Cytomegalovirus Assay
Assay type: cell-based
Conditions: Human betaherpesvirus 5, 120 h; HCMV strain AD169 on MRC5 cell monolayers, 5 days, HCMV DNA by blotting and hybridization
Method: HCMV strain AD169 was grown on monolayers of human embryonic lung cells (MRC5 cells) in 96 well plates. After infection of the cells at a ratio of approximately 0.01 infectious virus particles per cell; the compounds to be tested were added to selected wells at six different concentrations, each in triplicate. The same concentrations of compounds were also applied to wells containing monolayers of uninfected cells in order to assess compound cytotoxicity. The plates were incubated for 5 days, and the minimum cytotoxic dose was estimated from microscopic examination. The IC50 for antiviral effect was estimated from measurements of HCMV DNA in each well by blotting and quantitative specific DNA hybridization, similar to the method of Gadler (Antimicrob. Agents Chemother. 1983, 24, 370-374).

SMILES | IC50
CC(C)Nc1nc2ccc(Cl)cc2n1[C@@H]1O[C@H](C)[C@@H](O)[C@H]1O [Example 50, 6-Chloro-1-(5-deoxy-β-D-ribofuranosyl)-N-(1-methylethyl)-1H-benzimidazol-2-amine] | 7 µM
CC(C)Nc1nc2ccc(C(F)(F)F)cc2n1[C@@H]1O[C@H](C)[C@@H](O)[C@H]1O [Example 46, 6-trifluoromethyl-1-(5-Deoxy-beta-D-ribofuranosyl)-N-(1-methylethyl)-1H-benzimidazol-2-amine] | 6.1 µM
CC(C)Nc1nc2c(Cl)c(Cl)ccc2n1[C@@H]1O[C@H](C)[C@@H](O)[C@H]1O [Example 12, 4,5-Dichloro-1-(5deoxy-beta-D-ribofuranosyl)-N-(1-methylethyl)-1H-benzimidazol-2-amine] | 3.5 µM
CC(C)Nc1nc2c(Cl)cc(Cl)cc2n1[C@@H]1O[C@H](C)[C@@H](O)[C@H]1O [Example 9, 4,6-Dichloro-1-(5-deoxy-beta-D-ribofuranosyl)-N-(1-methylethyl)-1H-benzimidazol-2-amine] | 6.9 µM
CC(C)Nc1nc2cc(C(F)(F)F)ccc2n1[C@@H]1O[C@H](C)[C@@H](O)[C@H]1O [Example 44, 5-Trifluoromethyl-1-(5-Deoxy-beta-D-ribofuranosyl)-N-(1-methylethyl)-1H-benzimidazol-2-amine] | 7 µM
C[C@H]1O[C@@H](n2c(NC3CC3)nc3cc(Cl)c(Cl)cc32)[C@H](O)[C@@H]1O [Example 59, 5,6-Dichloro-1-(5-deoxy-beta-D-ribofuranosyl)-N-(cyclopropyl)-1H-benzimidazol-2-amine] | 1.1 µM

System: not given
Assay: not given
Conditions: not given

SMILES | melting point
CC(C)Nc1nc2cc(F)c(F)c(F)c2n1[C@@H]1O[C@H](C)[C@@H](O)[C@H]1O [Example 20, 5,6,7-Trifluoro-1-(5-deoxy-beta-D-ribofuranosyl)-N-(1-methylethyl)1H-benzimidazol-2-amine] | 175 to 178 °C
CC(=O)O[C@@H]1[C@H](OC(C)=O)[C@@H](C)O[C@H]1n1c(Br)nc2c(Cl)c(Cl)c(Cl)cc21 [Example 69, 2-Bromo4,5,6-trichloro-1-(2,3-di-O-acetyl-5-deoxy-beta-D-ribofuranosyl)-1H-benzimidazole] | 160 to 162 °C
C[C@H]1O[C@@H](n2c(Br)nc3cc(Cl)c(Cl)cc32)[C@H](O)[C@@H]1O [Example 73, 2-Bromo-5,6-dichloro-1-(5-deoxy-β-D-ribofuranosyl)benzimidazole] | 145 to 148 °C
C[C@H]1O[C@H](n2c(Cl)nc3cc(Cl)c(Cl)cc32)[C@@H](O)[C@H]1O [Example 72, 2,5,6-Trichloro-1-(5-deoxy-α-D-lyxofuranosyl)1H-benzimidazole] | 120 to 122 °C
CC(C)Nc1nc2c(F)c(F)c(F)cc2n1[C@@H]1O[C@H](C)[C@@H](O)[C@H]1O [Example 19, 4,5,6-Trifluoro-1-(5-deoxy-beta-D-ribofuranosyl)-N-(1-methylethyl)-1H-benzimidazol-2-amine] | 148 to 151 °C
C[C@H]1O[C@@H](n2c(Br)nc3cc(Cl)c(Cl)cc32)[C@H](O)[C@@H]1O (hydrate or solvate) [Example 4, 2-Bromo-5,6-dichloro-1-(5-deoxy-beta-D-ribofuranosyl)-1H-benzimidazole] | 133 to 135 °C
CC(=O)O[C@@H]1[C@H](OC(C)=O)[C@@H](C)O[C@H]1n1c(Cl)nc2c(Br)c(Cl)c(Cl)cc21 [Example 70, 4-Bromo-2,5,6-trichloro-1-(2,3-di-O-acetyl-5-deoxy-beta-D-ribofuranosyl)-1H-benzimidazole] | 138 to 141 °C
CC(=O)O[C@@H]1[C@H](OC(C)=O)[C@@H](C)O[C@H]1n1c(Cl)nc2c(Cl)c(Cl)c(Cl)cc21 [Example 68, 2,4,5,6-Tetrachloro-1-(2,3-di-O-acetyl-5-deoxy-beta-D-ribofuranosyl)-1H-benzimidazole] | 126 to 127 °C
CC(=O)O[C@@H]1[C@H](OC(C)=O)[C@@H](C)O[C@H]1n1c(Br)nc2c(Br)c(Cl)c(Cl)cc21 [Example 71, 2,4-Dibromo-5,6-dichloro-1-(2,3-di-O-acetyl-5-deoxy-beta-D-ribofuranosyl)-1H-benzimidazole] | 152 to 154 °C

Source: patent publication US6413938B1, “Benzimidazole derivatives for the treatment of viral infections” (The Regents of the University of Michigan, priority 1997, dated 2002)
